According to PubChem BioAssay AID1918994 (Molecular Pharmacology Branch, DTP, NCI, 2023):

Test system: 292921-168-R-J2-PDC complex spheroid growth
Assay: Anticancer human tumor 292921-168-R-J2-PDC patient-derived pancreatic carcinoma cell line growth inhibition [AhR]
Conditions: for IC50: curve of first compound; for viability, T/C: stronger effect = lower value
How it was run: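 Spheroids combined tumor cells with HUVEC endothelial cells and human MSCs as stroma. AhR antagonists were paired with standard or investigational drugs, each dosed in half-log steps down from near clinical Cmax, or from 10 microM where Cmax was unknown.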

[1] = second compound 0.1 µM, first compound 0.00949 µM
[2] = second compound 0.1 µM, first compound 0.03 µM
[3] = second compound 0.1 µM, first compound 0.0949 µM
[4] = second compound 0.1 µM, first compound 0.3 µM
[5] = second compound 0.316 µM, first compound 0.00949 µM
[6] = second compound 0.316 µM, first compound 0.03 µM
[7] = second compound 0.316 µM, first compound 0.0949 µM
[8] = second compound 0.316 µM, first compound 0.3 µM
[9] = second compound 1 µM, first compound 0.00949 µM
[10] = second compound 1 µM, first compound 0.03 µM
[11] = second compound 1 µM, first compound 0.0949 µM
[12] = second compound 1 µM, first compound 0.3 µM
[13] = second compound 3.16 µM, first compound 0.00949 µM
[14] = second compound 3.16 µM, first compound 0.03 µM
[15] = second compound 3.16 µM, first compound 0.0949 µM
[16] = second compound 3.16 µM, first compound 0.3 µM
[17] = second compound 10 µM, first compound 0.00949 µM
[18] = second compound 10 µM, first compound 0.03 µM
[19] = second compound 10 µM, first compound 0.0949 µM
[20] = second compound 10 µM, first compound 0.3 µM
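Further: spheroids exposed to compounds for seven days after three days of growth.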

Row | SMILES | IC50 (second compound 0.1 µM) | IC50 (second compound 0.316 µM) | IC50 (second compound 1 µM) | IC50 (second compound 3.16 µM) | IC50 (second compound 10 µM) | viability, T/C [1] | viability, T/C [2] | viability, T/C [3] | viability, T/C [4] | viability, T/C [5] | viability, T/C [6] | viability, T/C [7] | viability, T/C [8] | viability, T/C [9] | viability, T/C [10] | viability, T/C [11] | viability, T/C [12] | viability, T/C [13] | viability, T/C [14] | viability, T/C [15] | also measured
1 | Nc1ncn(C2CC(O)C(CO)S2)c(=O)n1 (stereo not given) + Cc1cncc(-c2nc(NCCc3c[nH]c4ccccc34)c3ncn(C(C)C)c3n2)c1 | > 300 nM | > 300 nM | > 300 nM | > 300 nM | 91.3 nM | 91.3% | 92.6% | 87% | 89.9% | 88.2% | 98.2% | 88.2% | 92.7% | 69.7% | 75.1% | 82.4% | 82.9% | 59.5% | 47.3% | 50% | viability, T/C (second compound 0.1 µM, first compound 0.000949 µM): 94.8%; viability, T/C (second compound 0.1 µM, first compound 0.003 µM): 92.2%; viability, T/C (second compound 0.316 µM, first compound 0.000949 µM): 91%; viability, T/C (second compound 0.316 µM, first compound 0.003 µM): 85.9%; viability, T/C (second compound 1 µM, first compound 0.000949 µM): 71.9%; viability, T/C (second compound 1 µM, first compound 0.003 µM): 74%; viability, T/C (second compound 3.16 µM, first compound 0.000949 µM): 52.2%; viability, T/C (second compound 3.16 µM, first compound 0.003 µM): 55.5%; viability, T/C [16]: 57.8%; viability, T/C (second compound 10 µM, first compound 0.000949 µM): 50.1%; viability, T/C (second compound 10 µM, first compound 0.003 µM): 48.8%; viability, T/C [17]: 54.6%; viability, T/C [18]: 50%; viability, T/C [19]: 50.2%; viability, T/C [20]: 48.4%
2 | O=C(C=Cn1cnc(-c2cc(C(F)(F)F)cc(C(F)(F)F)c2)n1)NNc1cnccn1 + Cc1cncc(-c2nc(NCCc3c[nH]c4ccccc34)c3ncn(C(C)C)c3n2)c1 | 179 nM | 165 nM | 194 nM | 108 nM | 107 nM | 90.8% | 85.3% | 62.6% | 39.1% | 91.9% | 86.2% | 62.1% | 36.2% | 91% | 80.2% | 62.4% | 42.5% | 83.6% | 71% | 51.5% | viability, T/C (second compound 0.1 µM, first compound 0.949 µM): 23%; viability, T/C (second compound 0.1 µM, first compound 3 µM): 15.2%; viability, T/C (second compound 0.316 µM, first compound 0.949 µM): 21.2%; viability, T/C (second compound 0.316 µM, first compound 3 µM): 16.2%; viability, T/C (second compound 1 µM, first compound 0.949 µM): 24.6%; viability, T/C (second compound 1 µM, first compound 3 µM): 13.1%; viability, T/C [16]: 35.2%; viability, T/C (second compound 3.16 µM, first compound 0.949 µM): 21.9%; viability, T/C (second compound 3.16 µM, first compound 3 µM): 18.9%; viability, T/C [17]: 54.4%; viability, T/C [18]: 58.1%; viability, T/C [19]: 51.2%; viability, T/C [20]: 38.7%; viability, T/C (second compound 10 µM, first compound 0.949 µM): 35.5%; viability, T/C (second compound 10 µM, first compound 3 µM): 29.1%
